Data reported in ChEMBL document CHEMBL5500399, “Design, Synthesis, and Biological Evaluation of 1,2,4-Oxadiazole Derivatives Containing an Aryl Carboxylic Acid Moiety as Potent Sarbecovirus Papain-like Protease Inhibitors” (J Med Chem, 2024).
Active and inactive are the calls of the source. The calls are words filed in the database; no cut-off is given here.

Key:
[1] = target: T1, Replicase polyprotein 1ab (Severe acute respiratory syndrome coronavirus 2, UniProt P0DTD1); assay: Inhibition of SARS-CoV2 PLpro using Z-RLRGG-AMC as substrate preincubated for 10 mins followed by substrate addition and measured after 20 sec shaking for 30 mins by time-resolved fluorescence assay
[2] = Metabolic stability in mouse hepatocytes assessed as compound remaining at 1 uM measured after 30 mins; type: ADME, cell-based, Hepatocyte; details: read-out: Stability
[3] = Metabolic stability in human hepatocytes assessed as intrinsic clearance per million cells at 1 uM measured upto 30 mins; type: ADME, cell-based, Hepatocyte; details: read-out: CLH
[4] = Metabolic stability in human hepatocytes assessed as half life at 1 uM measured upto 30 mins; type: ADME, cell-based, Hepatocyte
[5] = Metabolic stability in mouse hepatocytes assessed as half life at 1 uM measured upto 30 mins; type: ADME, cell-based, Hepatocyte
[6] = Metabolic stability in mouse hepatocytes assessed as intrinsic clearance per million cells at 1 uM measured upto 30 mins; type: ADME, cell-based, Hepatocyte; details: read-out: CLH
[7] = Metabolic stability in human hepatocytes assessed as compound remaining at 1 uM measured after 30 mins; type: ADME, cell-based, Hepatocyte; details: read-out: Stability
[8] = target: T1, Replicase polyprotein 1ab; assay: Binding affinity to SARS-CoV2 PLpro by biolayer interferometry analysis
[9] = target: Replicase polyprotein 1ab (Severe acute respiratory syndrome coronavirus 2) (UniProt P0DTD1); assay: Binding affinity to SARS-CoV2 PLpro assessed as stabilization by measuring increase melting temperature by thermal shift assay
[10] = Metabolic stability in human liver microsomes assessed as half life at 1 uM preincubated for 5 mins followed by NADPH addition and measured after 30 mins by LC-MS/MS analysis; type: ADME, Microsome; details: time 35 min
[11] = Metabolic stability in CD-1 mouse liver microsomes assessed as half life at 1 uM preincubated for 5 mins followed by NADPH addition and measured after 30 mins by LC-MS/MS analysis; type: ADME, Microsome; details: time 35 min
[12] = Metabolic stability in human liver microsomes assessed as compound remaining at 1 uM preincubated for 5 mins followed by NADPH addition and measured after 30 mins by LC-MS/MS analysis; type: ADME, Microsome; details: read-out: Stability
[13] = target: Replicase polyprotein 1ab (Severe acute respiratory syndrome coronavirus 2) (UniProt P0DTD1); assay: Inhibition of RLRGG binding to SARS-CoV2 PLpro
[14] = Metabolic stability in CD-1 mouse liver microsomes assessed as compound remaining at 1 uM preincubated for 5 mins followed by NADPH addition and measured after 30 mins by LC-MS/MS analysis; type: ADME, Microsome; details: read-out: Stability
[15] = target: Replicase polyprotein 1ab (Middle East respiratory syndrome-related coronavirus (isolate UnitedKingdom/H123990006/2012) (Betacoronavirus England 1) (Humancoronavirus EMC)) (UniProt K9N7C7); assay: Inhibition of MERS-CoV PLpro using Z-RLRGG-AMC as substrate preincubated for 10 mins followed by substrate addition and measured after 20 sec shaking for 30 mins by time-resolved fluorescence assay; details: time 40.3 min
[16] = test system: Severe acute respiratory syndrome-related coronavirus; assay: Inhibition of SARS-CoV PLpro using Z-RLRGG-AMC as substrate preincubated for 10 mins followed by substrate addition and measured after 20 sec shaking for 30 mins by time-resolved fluorescence assay
[17] = target: Replicase polyprotein 1ab (Severe acute respiratory syndrome coronavirus 2) (UniProt P0DTD1); assay: Inhibition of SARS-CoV2 PLpro cleavage activity using 2Ub-K48 as substrate incubated overnight by SYPRO Ruby staining based SDS-PAGE analysis
[18] = target: Replicase polyprotein 1ab (Severe acute respiratory syndrome coronavirus 2) (UniProt P0DTD1); assay: Potency index, ratio of GRL0617 IC50 to test compound IC50 for inhibition of SARS-CoV2 PLpro

SMILES | IC50 [1] [µM] | other results
Cc1ccc(NCc2ccc(C(=O)O)s2)cc1-c1noc(C(C)c2cccc3ccccc23)n1 (stereo not drawn) | 10.4 | 
Cc1ccc(-c2noc(C(C)c3ccc(CC(C)C)cc3)n2)cc1NCc1ccc(C(=O)O)s1 (stereo not drawn) | 3.6 | 
Cc1ccc(NCc2cccc(C(=O)O)c2)cc1-c1noc(C(C)c2cccc3ccccc23)n1 (stereo not drawn) | 11.1 | 
Cc1ccc(-c2noc(-c3cccc4ccccc34)n2)cc1NCc1ccc(C(=O)O)s1 | 11.6 | 
Cc1ccc(-c2noc(C(C)c3cccc(C(O)c4ccccc4)c3)n2)cc1NCc1ccc(C(=O)O)s1 (stereo not drawn) | 11.1 | 
COc1ccc2cc(C(C)c3nc(-c4ccc(C)c(NCc5ccc(C(=O)O)s5)c4)no3)ccc2c1 (racemic) | 5.9 | 
COc1ccc2cc([C@H](C)c3nc(-c4ccc(C)c(NCc5ccc(C(=O)O)s5)c4)no3)ccc2c1 | 5.8 | 
COC(=O)c1ccc(CNc2ccc(C)c(-c3noc(C(C)c4cccc5ccccc45)n3)c2)cc1 (stereo not drawn) | > 200 | 
Cc1ccc(-c2noc(Cc3cccc(-c4cccs4)c3)n2)cc1NCc1ccc(C(=O)O)s1 | 6.8 | 
Cc1ccc(NCc2ccc(O)cc2)cc1-c1noc(C(C)c2cccc3ccccc23)n1 (stereo not drawn) | 176 | 
Cc1ccc(NC2CCC(C(=O)O)CC2)cc1-c1noc(C(C)c2cccc3ccccc23)n1 (stereo not drawn) | 22.7 | 
CC(c1nc(-c2cc(NCc3ccc(C(=O)O)cc3)cc(C(F)(F)F)c2)no1)c1cccc2ccccc12 (stereo not drawn) | 0.2 | remaining at 0.5 h, 1 µM [2]: 28.8%; hepatocyte CLint at 1 µM [3]: 19 µL/min/1e6 cells; half-life at 1 µM [4]: 0.608 h; half-life at 1 µM [5]: 0.278 h; hepatocyte CLint at 1 µM [6]: 41.5 µL/min/1e6 cells; remaining at 0.5 h, 1 µM [7]: 56.6%; Kd [8]: 13.6 µM
COc1ccc2cc([C@@H](C)c3nc(-c4ccc(C)c(NCc5ccc(C(=O)O)s5)c4)no3)ccc2c1 | 10.5 | 
CC(c1noc(-c2ccc(-c3ccc(C(=O)O)s3)cc2)n1)c1cccc2ccccc12 (stereo not drawn) | 2.1 | 
Cc1ccc(-c2noc(-c3ccccc3)n2)cc1NCc1ccc(C(=O)O)s1 | 59 | 
Cc1ccc(Nc2ccc(C(=O)O)cc2)cc1-c1noc(C(C)c2cccc3ccccc23)n1 (stereo not drawn) | 10.7 | 
Cc1ccc(-c2noc([C@H](C)c3ccc(-c4ccccc4)c(F)c3)n2)cc1NCc1ccc(C(=O)O)s1 | 4 | 
Cc1ccc(NCc2ccc(C#N)cc2)cc1-c1noc(C(C)c2cccc3ccccc23)n1 (stereo not drawn) | > 200 | 
Cc1ccc(-c2noc(C(C)c3cccc(-c4ccccc4)c3)n2)cc1NCc1ccc(C(=O)O)s1 (stereo not drawn) | 4.3 | 

SMILES | IC50 [1] [µM] | other results
CC(c1nc(-c2cccc(NCc3ccc(C(=O)O)o3)c2)no1)c1cccc2ccccc12 (stereo not drawn) | 96.5 | 
CC(c1noc(-c2ccc(-c3ccc(C#N)s3)cc2)n1)c1cccc2ccccc12 (stereo not drawn) | 31.4 | 
Cc1ccc(-c2noc(C(C)c3ccc(N4Cc5ccccc5C4=O)cc3)n2)cc1NCc1ccc(C(=O)O)s1 (stereo not drawn) | 3.9 | 
Cc1ccc(-c2noc(-c3ccc(-c4ccccc4)cc3)n2)cc1NCc1ccc(C(=O)O)s1 | 25.5 | 
Cc1ccc(-c2noc(C(C)c3cccc(-c4cccs4)c3)n2)cc1NCc1ccc(C(=O)O)s1 (stereo not drawn) | 4.1 | Activity [9]: Active
Cc1ccc(-c2noc(C(c3ccccc3)c3ccccc3)n2)cc1NCc1ccc(C(=O)O)s1 | 9 | Activity [9]: Active
CC(c1nc(-c2cccc(NCc3ccc(C(=O)O)cc3)c2)no1)c1cccc2ccccc12 (stereo not drawn) | 7.5 | 
CC(c1ncc(-c2ccc(-c3ccc(C#N)s3)cc2)o1)c1cccc2ccccc12 (stereo not drawn) | 20.8 | 
Cc1ccc(NCC(C)(C)C)cc1-c1noc(C(C)c2cccc3ccccc23)n1 (stereo not drawn) | > 200 | 
CC(c1nc(-c2ccc(-c3ccc(C(=O)O)cc3)cc2)no1)c1cccc2ccccc12 (stereo not drawn) | 11.7 | 
COc1ccc(-c2noc(C(C)c3cccc4ccccc34)n2)cc1NCc1ccc(C(=O)O)s1 (stereo not drawn) | 1.3 | 
CC(c1nc(-c2cc(NCc3ccc(C(=O)O)cc3)ccc2Br)no1)c1cccc2ccccc12 (stereo not drawn) | 2.1 | 
Cc1ccc(NC2CCCCC2)cc1-c1noc(C(C)c2cccc3ccccc23)n1 (stereo not drawn) | 101 | 
CONC(=O)c1ccc(-c2ccc(-c3noc(C(C)c4cccc5ccccc45)n3)cc2)cc1 (stereo not drawn) | 0.9 | 
CC(c1nc(-c2cccc(NCc3ccc(C(=O)O)s3)c2)no1)c1cccc2ccccc12 (stereo not drawn) | 7.6 | 
Cc1ccc(-c2noc(C(C)c3cccc(Oc4ccccc4)c3)n2)cc1NCc1ccc(C(=O)O)s1 (stereo not drawn) | 4.4 | half-life at 1 µM [10]: > 1.55 h; half-life at 1 µM [11]: > 1.55 h; remaining at 0.5 h, 1 µM [12]: 87%; inhibition [13]: Active; remaining at 0.5 h, 1 µM [14]: 80%; inhibition [15]: Active; inhibition [16]: Active; inhibition [17]: Active
CC(c1nc(-c2ccc(NCc3ccc(C(=O)O)s3)cc2)no1)c1cccc2ccccc12 (stereo not drawn) | 0.2 | half-life at 1 µM [10]: > 1.55 h; half-life at 1 µM [11]: > 1.55 h; remaining at 0.5 h, 1 µM [12]: 102%; inhibition [13]: Active; Activity [9]: Active; remaining at 0.5 h, 1 µM [14]: 93.8%; Kd [8]: 13.6 µM; inhibition [15]: Active; inhibition [16]: Active; inhibition [17]: Active
CC(c1nc(-c2cc(NCc3ccc(C(=O)O)s3)cc(C(F)(F)F)c2)no1)c1cccc2ccccc12 (stereo not drawn) | 0.1 | remaining at 0.5 h, 1 µM [2]: 68%; hepatocyte CLint at 1 µM [3]: 7.5 µL/min/1e6 cells; half-life at 1 µM [4]: 1.54 h; half-life at 1 µM [5]: 0.898 h; hepatocyte CLint at 1 µM [6]: 12.9 µL/min/1e6 cells; remaining at 0.5 h, 1 µM [7]: 79.8%; Kd [8]: 13.6 µM; Ratio IC50 [18]: 10
Cc1ccc(NC2CCC(C#N)CC2)cc1-c1noc(C(C)c2cccc3ccccc23)n1 (stereo not drawn) | > 200 | 

SMILES | IC50 [1] [µM] | other results
Cc1ccc(NCc2ccc(C(=O)O)o2)cc1-c1noc(C(C)c2cccc3ccccc23)n1 (stereo not drawn) | 14.4 | 
Cc1ccc(-c2noc(C(C)c3ccc4c(c3)[nH]c3ccc(Cl)cc34)n2)cc1NCc1ccc(C(=O)O)s1 (stereo not drawn) | 1.9 | Kd [8]: 13.6 µM
CC(c1nc(-c2ccc(-c3ccc(C#N)s3)cc2)no1)c1cccc2ccccc12 (stereo not drawn) | 0.6 | 
Cc1ccc(-c2noc(C(C)c3cccc4ccccc34)n2)cc1NCc1ccc(C(=O)O)s1 (stereo not drawn) | 0.1 | Ratio IC50 [18]: 10
COC(=O)c1ccc(Nc2ccc(C)c(-c3noc(C(C)c4cccc5ccccc45)n3)c2)cc1 (stereo not drawn) | 70.9 | 
Cc1ccc(-c2noc(C(O)c3ccccc3)n2)cc1NCc1ccc(C(=O)O)s1 (stereo not drawn) | 435 | 
CC(c1ncc(-c2ccc(-c3ccc(C(=O)O)s3)cc2)o1)c1cccc2ccccc12 (stereo not drawn) | 7.7 | 
Cc1ccc(NC2CCCC(C(=O)O)C2)cc1-c1noc(C(C)c2cccc3ccccc23)n1 (stereo not drawn) | 35.1 | 
Cc1ccc(NCc2ccc(C(=O)O)cc2)cc1-c1noc(C(C)c2cccc3ccccc23)n1 (stereo not drawn) | 11.2 | 
CC(c1nc(-c2ccc(NCc3ccc(C(=O)O)cc3)cc2)no1)c1cccc2ccccc12 (stereo not drawn) | 50.2 | 
Cc1ccc(-c2noc(C(C)(C)c3ccc(-c4ccccc4)cc3)n2)cc1NCc1ccc(C(=O)O)s1 | 35.4 | 
COC1CCC(Nc2ccc(C)c(-c3noc(C(C)c4cccc5ccccc45)n3)c2)CC1 (stereo not drawn) | 114 | 
CC(c1nc(-c2ccc(Nc3ccc(C(=O)O)cc3)cc2)no1)c1cccc2ccccc12 (stereo not drawn) | 4.2 | 
CC(c1nc(-c2ccc(N(C)Cc3ccc(C(=O)O)s3)cc2)no1)c1cccc2ccccc12 (stereo not drawn) | 4 | 
Cc1ccc(-c2noc(C(C)c3cccc4ccccc34)n2)cc1NCc1ccc(C(=O)O)cc1 (stereo not drawn) | 0.2 | 
Cc1ccc(-c2noc([C@@H](C)c3ccc(-c4ccccc4)c(F)c3)n2)cc1NCc1ccc(C(=O)O)s1 | 3.4 | 
Cc1ccc(NCc2ccc(S(C)(=O)=O)cc2)cc1-c1noc(C(C)c2cccc3ccccc23)n1 (stereo not drawn) | 59.2 | 
Cc1ccc(N)cc1-c1noc(C(C)c2cccc3ccccc23)n1 (stereo not drawn) | > 200 | 
